Where two headings read alike, the source gives them in different places.
What was measured:
[1] = system: BlaM-Vpr-X4-tropic NL4-3; experiment: microbe, parasite or virus in culture; assay type: cell-based, HIV-1
[2] = system: cell fusion (anti-HIV activity); experiment: Inhibition of cell fusion by individual fatty acids; assay type: cell-based; details: Human immunodeficiency virus 1, read-out: percentage of inhibition of cell fusion; for inhibition at 1 µg/mL: 1 μg/ml; for inhibition at 5 µg/mL: 5 μg/ml
Protocol: Anti-HIV activity of the individual fatty acids was tested at four different concentrations. The values given in Table 1 represent the percentage of inhibition of cell fusion in the presence of each fatty acid.

[3] = target: T1, recombinant HIV-1 RT (Human immunodeficiency virus type 1 group M subtype B, UniProt P04585); experiment: Cell-free fluorescent reverse transcriptase (RT) assay; assay type: biochemical; details: 2-fold serial dilutions, two units recombinant HIV-1 RT
T1 construct: recombinant HIV-1 RT; purchased Ambion

[4] = target: T2, sCD4 (Homo sapiens, UniProt P01730); experiment: Saturation transfer difference NMR (STD-NMR) binding to sCD4; details: NMR buffer with 20% d6-DMSO, room temperature
T2 construct: soluble CD4 (sCD4) protein; purchased Progenics Pharmaceuticals
Protocol: FIGS. 15A-E show in vitro binding experiments of sCD4 with PA. FIG. 15A is a homonuclear NMR spectrum of 100 μM PA in the NMR buffer (10 mM KPO4 buffer, pH 7.0, 20% d6-DMSO, and 80% D2O). […] Tryptophan fluorescence was measured using an excitation wavelength of 280 nm. An increase of PA causes a red shift of 2 nm and quenching of the tryptophan fluorescence of sCD4.
We used a one-dimensional saturation transfer difference NMR (STD-NMR) experiment to characterize the binding of PA to sCD4 in vitro. […]
To perform the STD-NMR experiment, we used commercially available sCD4 (200 μg, 4.4 nmol, Progenics Pharmaceuticals), which was exchanged into the NMR buffer (160 μl of D2O and 40 μl d6-DMSO, containing 10 mM KPO4 buffer, pH 7.0). […] The NMR data were processed and analyzed using Topspin 2.0 (Bruker).
During the STD-NMR experiment, we titrated increasing concentrations of PA into sCD4 solution, and observed PA binding to sCD4, as shown by an increase in the intensity of the ligand STD-NMR signal (FIGS. 15A and 15B). The intensity of the STD signal was quantified by calculating the difference between the intensity of one signal in the off-resonance NMR spectrum, or reference NMR spectrum (I0), and the intensity of a signal in the on-resonance NMR spectrum (Isat) for various concentrations of the ligand (FIG. 15C). […]

[5] = target: ubiquitin (Homo sapiens, UniProt P0CG47); experiment: Dot blot binding of 14C-labeled PA to ubiquitin; details: 100 μM 14C-PA
Protocol: (§1) FIGS. 14A-C show the inhibition of HIV-1 fusion and CD4 interaction upon PA treatment. […] The percent of infected cells is indicated inside each quadrant. Cells were loaded with CCF2/AM dye and fusion was analyzed by multiparameter flow cytometry using a violet laser for excitation of CCF, and gated from 10,000 cells. […] The percent inhibition was plotted on the y-axis. […] The dot-blot membrane was washed and exposed to film, which was then scanned and the dot-blot total pixel mean value (intensity*mm^2) was quantified and plotted on the y-axis.
(§2) To further test this hypothesis and reveal a possible physical interaction between PA and sCD4, we performed dot blot analysis with ^14C-labeled PA (^14C-PA) incubated together with increasing concentrations of sCD4, ubiquitin, or S100A12 proteins (FIG. 14C). PVDF membrane (BioRad) was pretreated with 100 μM PA for 1 hour at room temperature (RT). Indicated concentrations of each protein in 10 μl/well were run through the vacuum of the dot blot apparatus. The membrane was then incubated with 100 μM ^14C-labeled PA (^14C-PA) in 33% ethanol for 1 hour at room temperature, and then washed in 33% ethanol and exposed to film. Blot total pixel mean value intensity was quantified by Quantity One 4.6.1 software (BioRad).

[6] = target: T2, sCD4; experiment: Dot blot binding of 14C-labeled PA to sCD4; details: 100 μM 14C-PA, increasing concentrations of sCD4
Protocol: as §1, §2

[7] = target: T3, S100A12 (Homo sapiens, UniProt P80511); experiment: Dot blot binding of 14C-labeled PA to S100A12; details: 100 μM 14C-PA
T3 sequence (P80511 1-92): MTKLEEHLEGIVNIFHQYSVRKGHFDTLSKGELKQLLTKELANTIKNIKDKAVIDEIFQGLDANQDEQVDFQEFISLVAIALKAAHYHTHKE
Protocol: as §1, §2

[8] = system: HIV-1 (NL4-3) cell-to-cell fusion; experiment: Cell-to-cell infection and syncytia formation in co-culture (infected CEM/1G5; infected 1G5/GHOST); details: only 10^−6 M ddC
[9] = system: 1G5 T cells; experiment: Viability of HIV-1 infected 1G5 T cells (MTT uptake, trypan blue exclusion); assay type: cell-based; details: 10^−6 M ddC
Protocol: FIGS. 2A-B show the dose response of HIV-1 inhibition and cell viability in T cells treated with S. fusiforme. […] The cells were washed 3 times and then returned to culture. On day 3 after infection, intracellular luciferase gene marker expression was measured from cell lysates adjusted to the same number of viable cells using an MTT assay (A).
FIGS. 3A-B show the time course of HIV-1 inhibition and viability in T cells. […] Cell viability was determined by trypan blue exclusion assay (B).
Next, we investigated the ability of S. fusiforme extracts to inhibit HIV-1 infection in 1G5 T cells. […] On day 3 after infection, equal numbers of viable cells were analyzed for intracellular luciferase expression and cell viability was measured using an MTT uptake assay (FIG. 2). HIV-1 inhibition was calculated by comparing treated and untreated cell cultures (both infected with HIV-1). […] Treatment with ddC blocked virus replication by over 98%. In parallel, we tested for MTT uptake by viable cells, which remained high regardless of the concentration of S. fusiforme extract used in treatment (FIG. 2B).
Infection was monitored by luciferase expression at specific time points after infection (FIG. 3A). […] Treatment with 2 mg/ml of S. fusiforme inhibited infection by 77, 99, and 99% on days 3, 5, and 7, respectively (FIG. 3A). Inhibition by ddC was 99% at each time point tested. […]

[10] = system: CXCR4 tropic HIV-1 (NL4-3); experiment: HIV-1 (NL4-3) replication in 1G5 T cells, luciferase expression; assay type: cell-based
[11] = system: primary CCR5-tropic isolate ADA; experiment: HIV-1 ADA infection of microglia, p24 ELISA; details: Human immunodeficiency virus 1, Microglia, 72 h
Protocol: Either macrophages (A) or microglia (B) were treated for 24 hours with 1 mg/ml S. fusiforme or with 10^−6 M ddC, infected with primary CCR5-tropic isolate ADA at 0.2 pg of p24/cell for 2 hours, washed 3 times, and returned to culture. At the indicated time points after infection, HIV-1 expression was monitored by p24 production in cell-free supernatants by ELISA and the percent inhibition was calculated and plotted on the Y-axis.
Next, we treated fetal microglial cell cultures with either 1 mg/ml of S. fusiforme or 10^−6 M ddC and monitored infection kinetics by p24 production in cell-free supenatants at the indicated time points after infection (FIG. 5B).

[12] = Human immunodeficiency virus 1, NL43, SUP-T1, read-out: inhibition of fusion

Question: With `c1cc(CN2CCCNCCNCCCNCC2)ccc1CN1CCCNCCNCCCNCC1` [AMD3100, reference compound] as the molecule, how does the fusion positive cells ([1]; 250 nM AMD3100, 51.5% without treatment) read?
Answer: The fusion positive cells was 28.7%.

Question: What about the virus-positive cells ([1]; AMD3100 in the PA experiment, 37.6% untreated) of the same molecule?
Answer: The virus-positive cells was 2.8%.

Question: And the inhibition at 0.25 µM [1, 12]?
Answer: Its inhibition at 0.25 µM is 44.5%.

Question: And the inhibition at 0.5 µM [1, 12]?
Answer: The inhibition at 0.5 µM was 80%.

Question: Which inhibition at 1 µg/mL [2] does the source give for `CCCCC/C=C\C/C=C\CCCCCCCC(=O)O` [Linoleic acid, linoleic acid] here?
Answer: Its inhibition at 1 µg/mL is 0%.

Question: What about the inhibition at 5 µg/mL [2] of the same molecule?
Answer: The inhibition at 5 µg/mL was 0%.

Question: And the “RT inhibition (in words)” value [3]?
Answer: The value was “potent RT inhibitors”.

Question: What does the source list for `CCCCCCCCCCCCCC(=O)O` [Myristic acid, myristic acid]?
Answer: inhibition at 1 µg/mL [2]: 8.8%; inhibition at 5 µg/mL [2]: 26.4%; STD-NMR signal on titration into sCD4 solution [4]: No STD-NMR signal was observed

Question: With `CCCCCCCC/C=C\CCCCCCCC(=O)O` [Oleic acid, oleic acid] as the molecule, how does the inhibition at 1 µg/mL [2] read?
Answer: Its inhibition at 1 µg/mL is 0%.

Question: And the inhibition at 5 µg/mL [2]?
Answer: The inhibition at 5 µg/mL was 0%.

Question: And the “RT inhibition (in words)” value [3]?
Answer: Its value is “potent RT inhibitors”.

Question: Which “binding to ubiquitin (dot blot)” value [5] does the source give for `CCCCCCCCCCCCCCCC(=O)O` [^14C-PA] here?
Answer: The value was “did not bind”.

Question: And the “binding to sCD4 (dot blot)” value [6]?
Answer: The value was “dose-dependent”.

Question: What about the “binding to S100A12 (dot blot)” value [7] of the same molecule?
Answer: The value was “did not bind”.

Question: What does the source list for `Nc1ccn([C@H]2CC[C@@H](CO)O2)c(=O)n1` [ddC, 2′,3′-didoxycytidine]?
Answer: inhibition of luciferase expression [8]: 69%; cell viability compared with S. fusiforme-treated cultures [9]: similar; virus replication blocked ([10]; 10^−6 M ddC, day 3 after infection): over 98%; inhibition at 1 µM ([10]; Human immunodeficiency virus 1, NL43, T-cell, read-out: inhibition of infection): 99%; luciferase expression ([10]; ddC control culture, mock-treated 29,601 RLU): 587 RLU; inhibition at 1 µM ([11]; read-out: virus inhibition, 10^−6 M ddC, after day 3): > 90%; inhibition at 1 µM ([11]; read-out: virus inhibition, 10^−6 M ddC, day 3): 72%

Reference: US20100247564A1, “METHODS AND COMPOSITIONS FOR THE USE OF SARGASSUM FUSIFORME FOR THE INHIBITION OF HIV-1 INFECTION” (priority 2007, published 2010)
